In test [1] the target is T1, human S1P1 (Homo sapiens, UniProt P21453).
T1 construct: expressed in transfected cells; membrane fraction used
Briefly: GTP[γ-35S] bond assay using the membrane of a human S1P1 expressing cell (S1P1 agonist activity). It counts as biochemical. The conditions noted are these: membrane of human S1P1 expressing CHO cell; concentration causing 50% of the maximum GTP[γ-35S] reaction. As for the experimental part: 1) Evaluation of a Receptor Agonist Activity by a GTP[γ-^35S] Bond Assay Using the Membrane of a Human S1P1 Expressing Cell
The in vitro S1P1 agonist activity of the compound of the present invention was evaluated by the increase in the functional bonding activity into the G-Protein of a GTP[γ-^35S] using the membrane of a human S1P1 expressing cell. A cDNA encoding a human S1P1 was cloned from a human colorectal cDNA library, and introduced to an expression vector pcDNA3.1 to construct a S1P1-pcDNA3.1. Then, by Lipofectamine 2000 (GIBCO), the S1P1-pcDNA3.1 was transfected into a CHO cell, and cultured in a Ham's F-12 culture medium containing 10% fetal bovine serum, 100 U/mL Penicillin, 100 μg/mL Streptomycin, and 1 mg/mL G418 disulfate, to obtain a stable, G418-resistant strain. The cultured human S1P1 expressing cells were isolated in a 1 mM EDTA/2Na-containing PBS, and disrupted under ice-cooling by a homogenizer made of glass in a 1 mM Tris HCl (pH 7.4) buffer solution containing 0.1 mM EDTA and a […]. It was centrifuged at […], and a supernatant was further centrifuged at 4° C. for 60 min at 100,000×g, and suspended in a 10 mM Tris HCl (pH 7.4) buffer solution containing 1 mM EDTA. The obtained membrane (0.13 mg/mL) and […] GTP[γ-^35S] […] The FilterMate was dried at 50° C. for 60 min, and Microscinti-o (Packard) was added thereto for measurement by a liquids scintillation counter for a microplate (Packard, TOP count). For evaluation of the human S1P1 agonist activity of the compound of the present invention and the comparative compound, the percentages with the rate of a maximum reaction to make the GTP[γ-^35S] bonds saturated in the presence of the compound being set at 100%, and the rate of the reaction of the GTP[γ-^35S] bonds in the absence of the compound being set at 0% was used, a non-linear regression curve was plotted, and a concentration to cause an agonist activity operating 50% of the maximum reaction was defined as an EC50 value (nM).

In test [2] the test system is number of the lymphocytes in peripheral blood. Briefly: Evaluation of peripheral blood lymphopenia in rat. It counts as in vivo. The conditions noted are these: Rattus norvegicus, Lymphocyte, read-out: ED50 value after 24 hours. As to the method:
2) Evaluation of Peripheral Blood Lymphopenia in Rat
The peripheral blood lymphopenia in rat was measured at 24 hours after oral administration in the following manner. Six- to ten-week-old male Lewis rats (Japan Charles river laboratories) were randomly divided into the groups (n=3), and the compound of the present invention was suspended in 0.5% methyl cellulose-containing distilled water, and orally administered with a sonde. At 24 hours after administration, under ether anesthesia, 0.2 ml of blood was collected from ocular fundus. To the blood sample were immediately added EDTA/4K and heparin to prevent clotting, and the number of the lymphocytes in blood was measured with an automatic haematology analyzer (Sysmex Corp.; XT-2000i). For the reduction of the number of the lymphocytes in peripheral blood by the compound of the present invention, the percentage with the number of the lymphocytes in groups administered with 0.5% methyl cellulose-containing distilled water being set at 100%, as performed at the same time was used, and the dose to cause 50% reduction of the number of the lymphocytes in peripheral blood by administration of the compound of the present invention was defined an ED50 value (mg/kg).

The mark [3] stands for this setting: male Lewis rats, oral administration, 50% reduction of the number of lymphocytes in peripheral blood at 24 hours after administration.

Where a name gives a salt, the structure may show the parent alone. Read-outs that look alike come from different tables or passages of the source. Some results are limits rather than exact numbers.

T1 sequence (P21453 whole entry): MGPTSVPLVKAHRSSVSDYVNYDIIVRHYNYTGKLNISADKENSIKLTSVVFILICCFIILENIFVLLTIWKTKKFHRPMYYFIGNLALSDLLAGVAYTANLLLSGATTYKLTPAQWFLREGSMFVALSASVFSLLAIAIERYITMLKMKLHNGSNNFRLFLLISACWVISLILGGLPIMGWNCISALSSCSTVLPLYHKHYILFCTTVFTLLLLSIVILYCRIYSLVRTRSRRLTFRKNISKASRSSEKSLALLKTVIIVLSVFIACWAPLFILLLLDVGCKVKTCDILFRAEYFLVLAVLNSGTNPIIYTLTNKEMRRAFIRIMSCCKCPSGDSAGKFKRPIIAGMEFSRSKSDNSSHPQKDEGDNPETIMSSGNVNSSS

`C[C@H](Oc1ncc(-c2nc(-c3cccc4c3ccn4CC(N)=O)no2)cc1Cl)C(F)(F)F` [Example 173] had an EC50 in test [1] of 4.3 nM.

`FC(F)(F)c1cc(-c2nc(-c3ccc4nc[nH]c4c3)no2)ccc1Oc1ccccc1` [Example 121]: in test [1], the EC50 was found to be 12 nM. On to `NC(=O)Cn1ccc2c(-c3noc(-c4ccc(OC(CF)CF)c(Cl)c4)n3)cccc21` [Example 6, 2-[4-(5-{3-chloro-4-[2-fluoro-1-(fluoromethyl)ethoxy]phenyl}-1,2,4-oxadiazol-3-yl)-1H-indol-1-yl]acetamide], for which, in test [1], it took 1.2 nM to reach a half-maximal effect (EC50). Molecule `C[C@@H](Oc1ccc(-c2nc(-c3ccc4[nH]cnc4c3)no2)cc1C(F)(F)F)C(F)(F)F` [Example 120] registered a 50% effective concentration (EC50) in test [1] of 4.6 nM. For the molecule `CNc1ncccc1-c1noc(-c2ccc(OC(C)C(F)(F)F)c(Cl)c2)n1.Cl` (centres unmarked) [Comparative Compound 5], the ED50 in test [2] (setting [3]) is more than 10 mg/kg. The molecule `CC(Oc1ccc(-c2nc(-c3cccc4c3ccn4CC(N)=O)no2)cc1C(F)(F)F)C(F)(F)F` (centres unmarked) [Example 181] showed an EC50 in test [1] of 4.7 nM.

`CC(Oc1ccc(-c2nc(-c3ccc4[nH]c(N)nc4c3)no2)cc1C(F)(F)F)C(F)(F)F` (centres unmarked) [Example 51] registered a 50% effective concentration (EC50) in test [1] of 13 nM. In test [1], `CC(Oc1ccc(-c2nc(-c3cccc4c3ccn4CC(N)=O)no2)cc1Cl)C(F)(F)F` (centres unmarked) [Example 164] gave an EC50 of 2.8 nM.

On to `CNc1ncccc1-c1noc(-c2ccc(OC(C)C(F)(F)F)c(C(F)(F)F)c2)n1` (centres unmarked) [Comparative Compound 1], for which the ED50 in test [2] (setting [3]) was determined as 1.4 mg/kg.

`FC(F)COc1ccc(-c2nc(-c3ccc4[nH]cnc4c3)no2)cc1C(F)(F)F` [Example 110] came in with an EC50 in test [1] of 6.2 nM. In the case of `CC(C)Oc1ccc(-c2nc(-c3cccc4c3ccn4CC(=O)NCCO)no2)cc1C(F)(F)F` [Example 196], in test [1], the EC50 was 5.3 nM.

For `NC(=O)Cn1ccc2c(-c3noc(-c4cnc(OC(CF)CF)c(Cl)c4)n3)cccc21` [Example 143], a half-maximal effect in test [1] (EC50) was put at 5.4 nM.

For the molecule `Cc1ccc(Cl)cc1-c1noc(-c2ccc(OC(C)C(F)(F)F)c(C(F)(F)F)c2)n1` (centres unmarked) [Comparative Compound 3], in test [2] (setting [3]), the ED50 was 3.7 mg/kg. Consider `Cc1c(-c2noc(-c3ccc(OC(C)C(F)(F)F)c(C(F)(F)F)c3)n2)ccc2[nH]cnc12` (centres unmarked) [Example 37], for which a half-maximal effect in test [1] (EC50) was put at 5.4 nM.

As to `CC(Oc1ccc(-c2nc(-c3ccc4[nH]cnc4c3)no2)cc1C(F)(F)F)C(F)(F)F` (centres unmarked) [Example 48], the EC50 in test [1] was determined as 6.5 nM. Take `COCC(=O)n1ccc2c(-c3noc(-c4ccc(OC(C)C(F)(F)F)c(C(F)(F)F)c4)n3)cccc21` (centres unmarked) [Example 182]: the EC50 in test [1] was 4.2 nM. As for `CNc1ncccc1-c1noc(-c2ccc(O[C@@H](C)C(F)(F)F)c(Cl)c2)n1.Cl` [Comparative Compound 4], in test [2] (setting [3]), the ED50 is more than 10 mg/kg. In the case of `C[C@H](Oc1ccc(-c2nc(-c3cccc4c3ccn4CC(=O)NCCO)no2)cc1C(F)(F)F)C(F)(F)F` [Example 194], in test [1], the EC50 stood at 2 nM. Regarding `CC(Oc1ccc(-c2nc(-c3cccc4nccn34)no2)cc1C(F)(F)F)C(F)(F)F` (centres unmarked) [Example 59], the EC50 in test [1] is 3.8 nM. In turn, `CC(Oc1ccc(-c2nc(-c3ccc4nc[nH]c4c3)no2)cc1Br)C(F)(F)F` (centres unmarked) [Example 64] gave an EC50 in test [1] of 5.7 nM. As for `Cc1cc(-c2nc(-c3cccc4c3ccn4CC(N)=O)no2)ccc1O[C@@H](C)C(F)(F)F` [Example 147], in test [1], the midpoint of the response, the EC50, lay at 3.2 nM. With `NC(=O)Cn1ccc2c(-c3noc(-c4ccc(C5CCCC5)c(C(F)(F)F)c4)n3)cccc21` [Example 81], in test [1], the EC50 was found to be 5.9 nM. The molecule `CC(Oc1ccc(-c2nc(-c3cccc4c3ccn4CC(N)=O)no2)cc1C#N)C(F)(F)F` (centres unmarked) [Example 163] came in with a half-maximal effective concentration (EC50) in test [1] of 1.9 nM. On to `CC(C)Oc1ccc(-c2nc(-c3cccc4c3ccn4CC(N)=O)no2)cc1Cl` [Example 8], for which the midpoint of the response in test [1], the EC50, lay at 5.4 nM.

`CC(=O)N1CCc2c(-c3noc(-c4ccc(OC(C)C(F)(F)F)c(C(F)(F)F)c4)n3)cccc21` (centres unmarked) [Example 15, 1-acetyl-4-{5-[3-(trifluoromethyl)-4-(2,2,2-trifluoro-1-methylethoxy)phenyl]-1,2,4-oxadiazol-3-yl}indoline] gave a concentration for a half-maximal effect (EC50) in test [1] of 2.1 nM. Regarding `CC(Oc1ccc(-c2nc(-c3cccnc3N)no2)cc1C(F)(F)F)C(F)(F)F` (centres unmarked) [Comparative Compound 2], the ED50 in test [2] (po, 24 h) was found to be 8.8 mg/kg. `CC(Oc1ccc(-c2nc(-c3ccc4cn[nH]c4c3)no2)cc1C(F)(F)F)C(F)(F)F` (centres unmarked) [Example 65] showed an EC50 in test [1] of 4 nM.

`CC(Oc1ccc(-c2nc(-c3ccnc4[nH]ccc34)no2)cc1C(F)(F)F)C(F)(F)F` (centres unmarked) [Example 60]: in test [1], the EC50 came out at 2.1 nM. As for `CC(Oc1ccc(-c2nc(-c3ccc4[nH]cnc4c3)no2)cc1Cl)C(F)(F)F` (centres unmarked) [Example 53], in test [1], the EC50 worked out at 5.8 nM. Molecule `CC(Oc1ccc(-c2nc(-c3ccc4nc[nH]c4c3)no2)cc1C(F)F)C(F)(F)F` (centres unmarked) [Example 87] had a half-maximal effective concentration (EC50) in test [1] of 3.7 nM.

`CC(Oc1ccc(-c2nc(-c3ccc4nc[nH]c4c3)no2)cc1C#N)C(F)(F)F` (centres unmarked) [Example 54] displayed a concentration for a half-maximal effect (EC50) in test [1] of 2.3 nM.

On to `CC(Oc1ccc(-c2nc(-c3ccc4[nH]c(CCS(C)(=O)=O)nc4c3)no2)cc1C(F)(F)F)C(F)(F)F` (centres unmarked) [Example 23, 2-[2-(methylsulfonyl)ethyl]-5-{5-[3-(trifluoromethyl)-4-(2,2,2-trifluoro-1-methylethoxy)phenyl]-1,2,4-oxadiazol-3-yl}-1H-benzimidazole hydrochloride], for which, in test [1], a half-maximal response (EC50) required 6.8 nM.

As to `Cc1cc(-c2nc(-c3cccc4c3ccn4CC(=O)NCCO)no2)ccc1O[C@@H](C)C(F)(F)F` [Example 193], in test [1], the EC50 stood at 6.8 nM. Turning to `C=CCOc1ccc(-c2nc(-c3ccc4[nH]cnc4c3)no2)cc1C(F)(F)F` [Example 106], the EC50 in test [1] amounted to 8.7 nM. As for `CC(C)Oc1ccc(-c2nc(-c3cccc4c3ccn4CC(N)=O)no2)cc1C(F)(F)F` [Example 5, 2-(4-{5-[4-isopropoxy-3-(trifluoromethyl)phenyl]-1,2,4-oxadiazol-3-yl}-1H-indol-1-yl)acetamide], in test [1], the EC50 was 5.5 nM. Consider `O=C(Cn1ccc2c(-c3noc(-c4ccc(OC(CF)CF)c(Cl)c4)n3)cccc21)NCCO` [Example 197], for which a half-maximal response in test [1] (EC50) required 3.3 nM. Same read-out and setting: the value for `C[C@@H](Oc1ccc(-c2nc(-c3ccc4[nH]cnc4c3)no2)cc1Cl)C(F)(F)F` [Example 200] was 3.6 nM; that for `CC(Oc1ccc(-c2nc(-c3cccc4[nH]ccc34)no2)cc1C(F)(F)F)C(F)(F)F` (centres unmarked) [Example 67] was 3.7 nM. In turn, `CC(Oc1ccc(-c2nc(-c3cccc4c3CCN4)no2)cc1C(F)(F)F)C(F)(F)F` (centres unmarked) [Example 26, 4-{5-[3-(trifluoromethyl)-4-(2,2,2-trifluoro-1-methylethoxy)phenyl]-1,2,4-oxadiazol-3-yl}indoline] gave an EC50 in test [1] of 4.7 nM. In test [1], `CC(Oc1ccc(-c2nc(-c3cccc4c3CCN4C)no2)cc1C(F)(F)F)C(F)(F)F` (centres unmarked) [Example 152] gave an EC50 of 7.6 nM.

In turn, `NC(=O)Cn1ccc2c(-c3noc(-c4ccc(OC(CF)CF)c(C(F)(F)F)c4)n3)cccc21` [Example 158] came in with a half-maximal effective concentration (EC50) in test [1] of 1.8 nM. The molecule `CC(Oc1ccc(-c2nc(-c3cccc4c3ccn4C)no2)cc1C(F)(F)F)C(F)(F)F` (centres unmarked) [Example 151] registered a concentration giving a half-maximal response (EC50) in test [1] of 11 nM. In test [1], `Cc1nc2cc(-c3noc(-c4ccc(OC(C)C(F)(F)F)c(C(F)(F)F)c4)n3)ccc2[nH]1` (centres unmarked) [Example 2, 2-methyl-5-{5-[3-(trifluoromethyl)-4-(2,2,2-trifluoro-1-methylethoxy)phenyl]-1,2,4-oxadiazol-3-yl}-1H-benzimidazole hydrochloride] registered a 50% effective concentration (EC50) of 13 nM. With `C[C@H](Oc1ccc(-c2nc(-c3cccc4c3ccn4CC(N)=O)no2)cc1C(F)(F)F)C(F)(F)F` [Example 12, 2-[4-(5-{3-(trifluoromethyl)-4-[(1S)-2,2,2-trifluoro-1-methylethoxy]phenyl}-oxadiazol-3-yl)-1H-indol-1-yl]acetamide], in test [1], a half-maximal effect (EC50) was put at 4.7 nM.
